Measured values from patent US11472830B2, “Cyclic dinucleotides as sting agonists” (Janssen Biotech, Inc., priority 2016, dated 2022).

Legend:
[1] = test system: CT26 colon carcinoma tumor; test: STING in vivo activity, mouse CT26 tumor model; conditions: CT26 tumor in Balb/c mice, 0.05 mg intratumorally every three days, three doses; for In vivo activity (cures): animals with no measurable tumor of 8
Experimental: For all studies, female Balb/c mice were obtained from Charles River Labs (Wilmington, Mass.) and used when they were 6-8 weeks of age and weighed approximately 20 g. All animals were allowed to acclimate and recover from any shipping-related stress for a minimum of 5 days prior to experimental use. Reverse osmosis chlorinated water and irradiated food (Laboratory Autoclavable Rodent Diet 5010, Lab Diet) were provided ad libitum, and the animals were maintained on a 12 h light and dark cycle. Cages and bedding were autoclaved before use and changed weekly. All experiments were carried out in accordance with The Guide for the Care and Use of Laboratory Animals and were approved by the Institutional Animal Care and Use Committee of Janssen R & D, Spring House, Pa. Each experimental group contained 8 mice. In vivo efficacy in a mouse CT26 tumor model was determined by implanting 500,000 CT26 colon carcinoma tumor cells subcutaneously into Balb/c mice and allowing tumors to establish to 100-300 mm^3. Compounds were injected intratumorally formulated in phosphate buffered saline in a volume of 0.1 ml per injection. Mice were administered 0.05 mg every three days for a total of three doses. Efficacy was measured as the percent tumor growth inhibition (TGI) calculated by the reduction in size of the Treated tumor volume (T) over the Control tumor volume (C) according to the following formula: ((C−T)/(C))*100 when all control animals were still on study. Cures were defined as the number of animals with no measurable tumor detected 10 tumor volume doubling times (TVDT) after the last dose was administered.

[2] = test system: IFN-β secretion in THP1-Blue ISG cells; test: Human interferon-β induction assay; assay type: cell-based; conditions: total cumulative IFN-β induction over the dose range tested (0.78 to 50 uM) in THP-1 cells
Experimental: Human Interferon-β Induction Assay
THP1-Blue ISG cells are used to measure the secretion of IFN-β into the culture supernatant following STING pathway activation. To run the assay, anti-IFN-β capture antibodies were coated on 96 well MultiArray plates (Mesoscale Discovery). After a one hour incubation, plates were washed and 50 μL supernatant from the STING human cell reporter assay plates or IFN-β standards were mixed with 20 μL Sulfotag-conjugated detection antibody in the coated plates. Plates were incubated, shaking for 2 h, washed, and read buffer was applied. Electrochemiluminescence was measured on the Sectorlmager.

[3] = test system: human STING pathway in THP1-ISG cells; test: STING human cell reporter assay; assay type: cell-based; conditions: 24 h, mean of at least three values
Experimental: STING Human Cell Reporter Assay
Agonism of the human STING pathway is assessed in THP1-ISG cells (Invivogen, cat #thp-isg) derived from human THP1 monocyte cell line by stable integration of an interferon regulatory factor (IRF)-inducible SEAP reporter construct. THP1-Blue ISG cells express a secreted embryonic alkaline phosphatase (SEAP) reporter gene under the control of an ISG54 minimal promoter in conjunction with five interferon (IFN)-stimulated response elements. As a result, THP1-Blue ISG cells allow the monitoring of IRF activation by determining the activity of SEAP. The levels of IRF-induced SEAP in the cell culture supernatant are readily assessed with alkaline phosphatase detection medium, a SEAP detection reagent. These cells are resistant to Zeocin. […] To run the assay, 60,000 cells were dispensed in 30 μL/well of a white, opaque bottom tissue culture treated 384-well plate.
Test compounds were added in a volume of 10 μL (1% DMSO final concentration). Compounds are initially prepared in 100% DMSO, spotted on an intermediate dilution plate and then diluted in media prior to transfer. The assay was incubated for 24 h at 37 °C, 5% CO2 then plates were centrifuged at 1200 rpm (120× g) for 5 min. After final incubation, 90 μL of alkaline phosphatase detection medium-substrate was added to each well of a new 384-well clear plate and 10 μL of the cell supernatant was transferred from the assay plate to the new alkaline phosphatase detection medium-plate using a Biomek FX and mixed 4 times.

HBV infected PHH cells = test: Suppression of HBV virus in PHH cells using conditioned media from STING activated primary human PBMC; assay type: cell-based, hepatitis B virus; conditions: conditioned media from PBMCs stimulated at 20, 4, 0.8 μM for 48 h, 1:1 on HBV infected PHH cells; HBsAg 8 days later; two donors; read-out: EC50 (HBsAg production)
Text: Suppression of HBV Virus in PHH Cells Using Conditioned Media from STING Activated Primary Human PBMC
Primary human hepatocytes can be infected with hepatitis B virus and during an established infection, will produce viral proteins such as HBsAg and HBeAg that can be detected by ELISA. Therapeutic treatment with compounds such as entecavir can suppress HBV reproduction, which can be measured by decreased viral protein production. (# of cells) 4×10^5 cells/well primary human hepatocytes (BioReclamation, Westbury, N.Y.) were dispensed into 500 μL/well of flat-bottom, tissue culture treated, 24-well plates. 24 h later, cells were infected with 30-75 moi of HBV. On the next day, the PHH were washed 3× and fresh maintenance media was added to the cells. Concurrently, PBMC were isolated as described previously. To stimulate the PBMC, 10,000,000 cells were dispensed into 400 μL/well of flat-bottom, tissue culture treated, 24-well plates. […] Cells were measured for activation marker upregulation using flow cytometery. […] Samples were analyzed on an Attune NxT flow cytometer (Thermo Fisher, Carlsbad, Calif.)
From the stimulated PBMC cultures, a portion of supernatant was reserved for cytokine detection by Luminex, as described previously. […] Following 96 h, the media was collected and HBsAg was measured.

STING = STING (Homo sapiens, UniProt Q86WV6, H232R); test: STING SPA binding assay; conditions: displacement of [3H]-2′3′-cGAMP; mean of at least three values; read-out: hSTING SPA IC50
STING, sequence (Q86WV6 139-379 H232R): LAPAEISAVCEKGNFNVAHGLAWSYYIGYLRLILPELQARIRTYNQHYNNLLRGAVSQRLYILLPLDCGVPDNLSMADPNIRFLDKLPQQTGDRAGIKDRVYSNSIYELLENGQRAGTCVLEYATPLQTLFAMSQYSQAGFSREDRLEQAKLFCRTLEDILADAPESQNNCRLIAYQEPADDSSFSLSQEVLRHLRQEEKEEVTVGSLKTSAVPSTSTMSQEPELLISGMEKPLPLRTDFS
Experimental: The HIS tag is cleaved after purification and prior to biotinylation.
Test compounds (80 nL) were added with an acoustic dispenser (EDC Biosystems) in 100% DMSO for a final assay concentration of 1% DMSO. Plates were centrifuged for 1 min and incubated for 60 min at room temperature. Finally, (2 μL) polystyrene streptavidin SPA beads (PerkinElmer RPNQ0306) were added and plates were sealed and centrifuged for 1 min at room temperature. Plates were dark adapted for 2 h and read on a ViewLux (Perkin Elmer) for 12 min per plate.

Row | Structure (SMILES) | EC50 [3] [nM] | EC50 (HBV infected PHH cells) [nM] | IC50 (STING) [nM] | In vivo activity (% TGI) [1] [%] | In vivo activity (cures) [1] | human IFN-β (ranking value) [2]
1 | Nc1nc2c(ncn2C2OC3CO[P@@](=O)(S)OC4C(CO[P@@](=O)(S)OC2C3O)OC(n2cnc3c(N)ncnc32)C4F)c(=O)[nH]1 (single isomer, unassigned) [Compound 4] | 90 | – | – | 93.7 | 6/8 | 2247
2 | Nc1nc2c(ncn2C2OC3CO[P@](=O)(S)OC4C(CO[P@](=O)(S)OC2C3O)OC(n2cnc3c(N)ncnc32)C4F)c(=O)[nH]1 (single isomer, unassigned) [Compound 5] | 160 | – | – | 93.3 | 7/8 | 2737
3 | B[P@]1(=O)OCC2OC(n3cnc4c(=O)[nH]c(N)nc43)C(O[P@@](B)(=O)OCC3OC(n4cnc5c(N)ncnc54)C(O)C3O1)C2O (single isomer, unassigned) [Compound 7] | 1120 | 0.0851 | – | 94.3 | 5/8 | 2260
4 | B[P@@]1(=O)OCC2OC(n3cnc4c(=O)[nH]c(N)nc43)C(O[P@](B)(=O)OCC3OC(n4cnc5c(N)ncnc54)C(O)C3O1)C2O (single isomer, unassigned) [Compound 8] | 110 | – | – | 95.3 | 4/8 | 2054
5 | Nc1nc2c(ncn2C2OC3COP(=O)(O)OC4C5OCC4(COP(=O)(O)OC2C3O)OC5n2cnc3c(N)ncnc32)c(=O)[nH]1 (stereo not drawn) [Compound 6] | 120 | – | – | 73.9 | 1/8 | 27

Continued, in another order:

Row | EC50 [3] [nM] | EC50 (HBV infected PHH cells) [nM] | IC50 (STING) [nM] | Structure (SMILES) | In vivo activity (% TGI) [1] [%] | In vivo activity (cures) [1] | human IFN-β (ranking value) [2]
6 | 640 | – | – | B[P@@]1(=O)OCC2OC(n3cnc4c(=O)[nH]c(N)nc43)C(O[P@](=O)(S)OCC3OC(n4cnc5c(N)ncnc54)C(F)C3O1)C2OC (single isomer, unassigned) [Compound 9] | 89.8 | – | 2240
7 | 540 | – | – | B[P@]1(=O)OCC2OC(n3cnc4c(=O)[nH]c(N)nc43)C(O[P@](=O)(S)OCC3OC(n4cnc5c(N)ncnc54)C(F)C3O1)C2OC (single isomer, unassigned) [Compound 10] | – | – | 1321
8 | 490 | – | < 10 | B[P@@]1(=O)OCC2OC(n3cnc4c(=O)[nH]c(N)nc43)C(O[P@](B)(=O)OCC3OC(n4cnc5c(N)ncnc54)C(F)C3O1)C2OC (single isomer, unassigned) [Compound 11] | – | – | 3840
9 | 220 | – | < 10 | B[P@]1(=O)OCC2OC(n3cnc4c(=O)[nH]c(N)nc43)C(O[P@@](B)(=O)OCC3OC(n4cnc5c(N)ncnc54)C(F)C3O1)C2OC (single isomer, unassigned) [Compound 12] | – | – | 3860
10 | 590 | – | – | B[P@@]1(=O)OCC2OC(n3cnc4c(N)ncnc43)C(F)C2O[P@](=O)(S)OCC2OC(n3cnc4c(=O)[nH]c(N)nc43)C(O1)C2OC (single isomer, unassigned) [Compound 13] | – | – | 2900
11 | 450 | – | – | B[P@]1(=O)OCC2OC(n3cnc4c(N)ncnc43)C(F)C2O[P@@](=O)(S)OCC2OC(n3cnc4c(=O)[nH]c(N)nc43)C(O1)C2OC (single isomer, unassigned) [Compound 14] | – | – | 4964
